The source of these data is US20030119733A1, “Compositions and methods for inhibiting hepatocyte invasion by malarial sporozoites” (New York University, priority 1992, published 2003).

For data set [1], the system named is binding of CS27IVC to liver sections. Description: Peptide inhibition of CS27IVC binding to frozen liver sections. As to conditions: peptide preincubation, up to 500 μg/ml. Further details: species or system rat. As to the method:
The procedure was carried out essentially as described by Dukor P. et al., Proc. Natl. Acad. Sci. USA 67:991-997, 1970 and Imai Y. et al., J. Cell. Biol. 111:1225-1232, 1990. Rats were euthanized with CO2. Small pieces of the liver, spleen, heart, brain and lung were removed, snap frozen in liquid nitrogen, embedded in Tissue Tek O.C.T. (Miles, Inc., Naperville, Ill.), and cut into 5 μm sections. Sections were dried for 30 min., fixed for 10 min. in 4% paraformaldehyde, rinsed three times with phosphate-buffered saline (PBS), and either used immediately or stored at 4° C. in 1% BSA, 0.5% Tween, PBS (BSA/TPBS). After blocking with 100 mM glycine (pH 7.2) and with BSA/TPBS, the sections were sequentially incubated at 37° C. with recombinant proteins for 1 hr, 10 μg/ml MAb 2A10 for 45 min., and rat anti-mouse immunoglobulin conjugated to fluorescein isothiocyanate (Boehringer Mannheim, Indianapolis, Ind.) for 45 min. The slides were counterstained for 10 min. with 0.3% Evans blue, rinsed extensively in PBS, and finally observed under a fluorescence microscope. For peptide inhibition experiments, the sections were first incubated with the peptide at various concentrations in BSA/TPBS for 1 hour at 37° C., washed six times with BSA/TPBS, and then stained with 2.5 μg/ml CS recombinant protein as described above. In a few experiments, the tissues were fixed for 10 min. with methanol, acetone, or 4% paraformaldehyde containing 0.5% glutaraldehyde.

In data set [2] the test system is P. berghei sporozoites. It is filed as cell-based. As to conditions: for Number of EEF (Mean ± SD): schizonts per 20 fields. As for the experimental part: Assays were conducted according to the methods described by Hollingdale, M. R. et al.. Science 213:1021-1022, 1981. and Sinden, R. E., WHO Bulletin MOS (Suppl.) 68:115-125, 1990. HepG2 cells were plated in FCS-MEM at a density of 0.5×10^6 cells/ml in 8-chamber slides (4808 Lab-tek, Naperville, Ill.) 24 hr. before each experiment. […] For antibody inhibition experiments, sporozoites were preincubated in FCS-MEM alone, or FCS-MEM containing anti-Region II IgG, or with preimmune sera IgG for 30 min. at 4° C. Sporozoites (5×10^4), in a volume of 100 μl, were added to each well. The medium was replenished after 2 hr. and changed after 18 and 28 hr. Each point was performed in quadruplicate. In experiments designed to evaluate the toxicity of the peptides and antisera, sporozoites were first incubated with the HepG2 cells for 2 hr in FCS-MEM. FCS-MEM containing the peptide at a concentration of 250 μg/ml (or the IgGs at a concentration of 700 μg/ml) was then added to the cultures, and incubation proceeded for two additional hours. As above, FCS-MEM was changed after 18 and 28 hr. All cultures were fixed with cold methanol containing 0.3% H2O2 after 48 hr. […] The number of exoerythrocytic forms in 20 fields was counted in a double-blind fashion under a 20× light microscope objective.
The number of exoerythrocytic forms (“EEF”) of the parasite that developed in the HepG2 cells were counted two days later. […] In Table 2, “Number of EEF” represents the average number of schizonts counted per 20 fields under 20-times magnification of a light microscope in quadruplicate wells; P values were calculated by one-way analysis of variances corrected by the Bonferroni method using the commercially available computer program GraphPAD Instat, version 1.14, copyright 1990. […]

The test system of data set [3] is binding of CSFZ(Cys) to HepG2 cells. Description: Inhibition of CS binding to HepG2 cells by glycosaminoglycans. Further details: species or system human. The conditions noted are these: preincubated with 5 μg/ml CSFZ(Cys); FIG. 9. As to the method: 10^5 HepG2 cells were deposited in 96-well Removawell tissue culture plates and allowed to grow overnight in MEM (Gibco) containing 10% FCS, 1 mM L-glutamine (Gibco), 3 mg/ml glucose (Sigma) and 1× non-essential amino acids (Gibco). The HepG2 cells were fixed with 4% paraformaldehyde in TBS (50 mM Tris-HCl, pH 7.5, 137 mM NaCl, 2 mM KCl), were washed 3 times with TBS, and were stored at 4° C. in BSA/TBS until use. CSFZ(Cys) at 5 μg/ml was incubated with increasing amounts of the presumed inhibitors at 37° C. for 15 min. Fifty μl of these mixtures were added to the cells, incubated for 1 hr at 37° C., washed 3× with TBS/0.05% Tween and then sequentially incubated with 50 μl of mAb 2A10 at a concentration of 10 μg/ml in TBS/BSA buffer for 30 min at 37° C., and 1:5000 dilution of goat anti-mouse IgG conjugated to alkaline phosphatase (Boehringer) for 30 minutes. […] After 15 minutes, the fluorescence was measured in a Fluoroskan II plate reader (ICN).
Proteoglycans were preincubated with 5 μg/ml of CSFZ(Cys) and then were added to paraformaldehyde-fixed HepG2 cells. […] Each point represents the mean of triplicates. Percent inhibition was calculated by comparison to CSFZ(Cys) preincubated in medium alone.

Data set [4] has as its system heparan sulfate proteoglycans (HSPG). Nature of the data set: CS/proteoglycan co-immunoprecipitation. The format is binding, human. The conditions noted are these: for effect on co-immunoprecipitation of the CS receptor by CSFZ(Cys): 100 μg/ml added to 35SO4-labeled HepG2 cell extracts; for effect on co-immunoprecipitation of purified proteoglycans by CSFZ(Cys): purified trypsin-released HepG2 proteoglycan, FIG. 17. As to the method:
All extracts and supernatants were first precleared with normal rabbit serum and Staph A cells. Then 32 μg/ml of CSFZ(Cys) or 64 μg/ml of CS27IVC, Falc-2 or Falc-1 were added for 30 minutes, followed by 10.8 μg/ml mAb 2A10 for 30 minutes, and 1% Staph A cells (final concentrations). The suspensions were shaken for 1 to 5 hours at 4° C. The Staph A cells were washed 3 times with the lysis buffer A, 2 times with lysis buffer B (10 mM Tris-HCl, pH 7.2, containing 100 mM NaCl and 0.5% NP40), 1 time with 50 mM Tris-HCl, ph 7.2, and were processed in this buffer for electrophoresis under reducing and non-reducing conditions.
Extracts of cells metabolically labeled with ^35SO4 were incubated for 30 minutes at 4° C. with 32 μg/ml of recombinant CSFZ(Cys) or 64 μg/ml Falc-1, and were immunoprecipitated with mAb 2A10 and Staph A cells. […] Immunoprecipitation with Falc-1 was negative. The SDS-PAGE patterns of the total lysate of HepG2 cells, and of the molecules co-immunoprecipitated with CSFZ(Cys) resembled the corresponding liver SDS-PAGE patterns. In kidney lysates, CSFZ(Cys) selectively immunoprecipitated a band of slightly lower molecular weight than the total kidney sulfated molecules.
Sub-confluent HepG2 cells were incubated with various concentrations of trypsin for 5 minutes at 4° C. […] Independently of the trypsin concentration, about 80% of the released HSPG was co-immunoprecipitated by 32 μg/ml CSFZ(Cys) and 10.8 μg/ml mAb 2A10. Under the same conditions, Falc-1 was negative.
^35SO4-labeled trypsin-released proteoglycan (total supernatant) was precipitated by CSFZ(Cys) (32 μg/ml), Falc-2 (64 μg/ml), CS27IVC (64 μg/ml) and Falc-1 (64 μg/ml). The labeled molecules were incubated with CSFZ(Cys), CS27IVC, and Falc-2 at equivalent concentrations of Region II+, and co-immunoprecipitated with the mAb 2A10. CSFZ(Cys), lacking most of the repeat region, precipitated up to 86% of the total sulfate-labeled proteoglycans (see FIG. 14), while CS27IVC and Falc-2 precipitated only 18% and 6% of the counts, respectively. Falc-1, which lacks Region II+, was negative.
Subconfluent sulfate-labeled HepG2 cells were incubated with 20 μg/ml trypsin for 5 minutes at 4° C., and the supernatants were loaded onto an anion exchange chromatography Pharmacia mono-Q column. These were eluted with a 0 to 2 M NaCl gradient in the presence of 7 M urea. […] Protein was not detectable in the labeled peaks. One ml fractions were collected and counted.

In data set [5] the test system is Vivax-2 binding to sulfatide. Nature of the data set: Inhibition of binding of Vivax-2 to sulfatide. Further details: species or system P. vivax. As to the method: (§1) Solid phase binding assays: Thirty μl of lipids or steroids dissolved in methanol (20-250 μg/ml) were dried into wells of microassay plates (Cat.# 3911—Falcon—Oxnard, Calif.). The plates were then blocked with 1% BSA/PBS pH 7.4 (BSA/PBS) for 30 minutes. Wells were incubated with recombinant protein (or with parasite extract) in PBS/BSA for 1 hour, washed 3 times with BSA/PBS, incubated for 1 hour with monoclonal antibodies 2F2 or 2A10 in BSA/PBS, washed 3 times, and then incubated with (10^5 cpm/well) ^125I protein A (Amersham Corp., Arlington Hts., Ill.). In the case of the P. berghei CS protein, wells were incubated with ^125I labelled mAb 3D11. Wells were washed again and the bound radioactive protein was counted in an LKB gamma-counter (model #1260, Pharmacia, Inc., Gaithersburg, Md.). For inhibition assays, the recombinant proteins were mixed with dilutions of the various polymers in BSA/PBS, the mixture was loaded into the wells of the microtiter plates, and the binding assay performed as above. See also, Roberts, et al. J. Biol. Chem. 260:9405-9411, 1985.

Data set [6] has as its system Vivax-2 binding to cholesterol-sulfate. Nature of the data set: Inhibition of binding of Vivax-2 to cholesterol-sulfate. Further details: species or system P. vivax. As for the experimental part: as §1
The test system of data set [7] is P. berghei sporozoites. Description: Infection assay of HepG2 cells with polymers. As to conditions: for effect on sporozoite invasion: present during invasion, 5-50 μg/ml; for invasion of hepatocytes by sporozoites in vitro: no conditions given. The format is cell-based. As to the method: Infection assay: Semiconfluent monolayers of HepG2 cells were grown in 10% FCS/MEM on 8 chamber slides (#4808 Lab-tek -Naperville, Ill.) for 24 hours prior to each experiment. Sporozoites were pre-incubated in media alone or with the various polymers for 15 minutes at 4° C. 5×10^4 sporozoites, in a volume of 10 μl, were added per chamber. After 4 hours of incubation at 37° C., the medium containing the sporozoites was gently aspirated, and 0.5 ml MEM/10% FCS was added. Fresh medium was added at 18 hours and 28 hours, and then cells were fixed with methanol containing 0.3% H2O2 at 48 hours. After fixation, the wells were blocked with 10% FCS/PBS and were incubated with 10 μg/ml of mAb 2E6. Binding of the mAb was detected with a polyclonal goat anti-mouse Ig conjugated to horseradish peroxidase. […] The parasites in each well are counted under a 40× light microscope objective.
The cells were fixed and stained with mAb 2E6, followed by goat-anti-mouse linked to horseradish peroxidase. Numbers represent schizonts counted/20 fields under 40× magnification in a light microscope.

Setting [8] is: peptide 500 μg/ml present during invasion.

Values joined by “and” are separate entries in the source; they are usually repeats but may differ in a detail not shown here. Identical values can stand only once. Like-named read-outs stand apart in the source and are kept apart here. Where no end group is shown, it is not given here.

Consider PGSANKPKDELDYANIEKK [Pf4], for which the “inhibition of the binding of CS27IVC to liver sections” value in data set [1] is given as “failed to inhibit”. For the same substance, the “Number of EEF (Mean ± SD)” value with P. berghei sporozoites [2] (peptide 250 μg/ml present during invasion) was 122.5 ± 13.4 and 123.7 ± 20.1 and 105.0 ± 12.5. Besides, in the data set on P. berghei sporozoites [2] (setting [8]), the “Percentage of Inhibition” value was determined as 0.0% and the “Number of EEF (Mean ± SD)” value was 375.2 ± 52.

Consider chondroitin sulfate, for which the “inhibition of CS binding to HepG2 cells” value in data set [3] is reported as “not”. Moreover, in data set [4], the “effect on co-immunoprecipitation of the CS receptor by CSFZ(Cys)” value is “no effect” and the “effect on co-immunoprecipitation of purified proteoglycans by CSFZ(Cys)” value is on record as “not”.

For dextran, the “inhibition of CS binding to HepG2 cells” value in data set [3] was “not”. The “% INHIBITION” value in data set [5] (inhibitor 1 mg/ml) and in data set [6] (inhibitor 10 mg/ml) was 0% in each case. In addition, the “effect on sporozoite invasion” value with P. berghei sporozoites [7] is “no effect”.

Turning to fucoidan, in data set [3], the “inhibition of CS binding to HepG2 cells” value is listed as “inhibited”. The “invasion of hepatocytes by sporozoites in vitro” value in the data set on P. berghei sporozoites [7] is “inhibited”.

For the substance heparan-sulfate, the “inhibition of CS binding to HepG2 cells” value in data set [3] was “inhibited”. Moreover, the “effect on binding to sulfatide” value in data set [5] (1 mg/ml) is given as “no effect”. Further, the “% INHIBITION” value in data set [5] (inhibitor 1 mg/ml) and in data set [6] (inhibitor 10 mg/ml) was 0% throughout. For the same substance, the “effect on sporozoite invasion” value in the data set with P. berghei sporozoites [7] is reported as “no effect”.

heparin: the “inhibition of CS binding to HepG2 cells” value in data set [3] is “inhibited”. The entries for the “% INHIBITION” value in data set [5] (inhibitor 100 μg/ml), in data set [6] (inhibitor 1 mg/ml) and in data set [6] (inhibitor 10 mg/ml) were 0%, 0% and 31.2%, respectively. Further, the “effect on co-immunoprecipitation of the CS receptor by CSFZ(Cys)” value in data set [4] is recorded as “prevented”. Further, the “effect on co-immunoprecipitation of purified proteoglycans by CSFZ(Cys)” value in data set [4] is “inhibited co-immunoprecipitation”. Also, the “invasion of hepatocytes by sporozoites in vitro” value with P. berghei sporozoites [7] is “inhibited”.
